Results reported in PMC9545004, “Transglutaminase 2 affinity and enzyme‐substrate intermediate stability as determining factors for T‐cell responses to gluten peptides in celiac disease” (European Journal of Immunology, 2022).
Values belong to the molecule of their own block, whether it stands above or below them. No end group written: not given here. *: point of attachment. FITC = O=C1OC2(c3ccc(O)cc3Oc3cc(O)ccc32)c2ccc(NC(=S)*)cc21; Ahx = NCCCCCC(=O)O

Key:
[1] = target: T1, Recombinant human TG2 (Homo sapiens, UniProt P21980); assay: TG2 enzyme kinetic assay, GDH-coupled ammonia release; type: biochemical; details: for kcat/Km / Km / kcat: GDH-coupled, MOPS pH 7.2, TG2 50 µg/mL, 37°C, A340; for Km / kcat: mean and SD from three independent experiments
T1 construct: His-tag (C); made in house; host or cells: Sf+ express insect cells (pACAB3 vector)
T1 sequence (P21980 1-687): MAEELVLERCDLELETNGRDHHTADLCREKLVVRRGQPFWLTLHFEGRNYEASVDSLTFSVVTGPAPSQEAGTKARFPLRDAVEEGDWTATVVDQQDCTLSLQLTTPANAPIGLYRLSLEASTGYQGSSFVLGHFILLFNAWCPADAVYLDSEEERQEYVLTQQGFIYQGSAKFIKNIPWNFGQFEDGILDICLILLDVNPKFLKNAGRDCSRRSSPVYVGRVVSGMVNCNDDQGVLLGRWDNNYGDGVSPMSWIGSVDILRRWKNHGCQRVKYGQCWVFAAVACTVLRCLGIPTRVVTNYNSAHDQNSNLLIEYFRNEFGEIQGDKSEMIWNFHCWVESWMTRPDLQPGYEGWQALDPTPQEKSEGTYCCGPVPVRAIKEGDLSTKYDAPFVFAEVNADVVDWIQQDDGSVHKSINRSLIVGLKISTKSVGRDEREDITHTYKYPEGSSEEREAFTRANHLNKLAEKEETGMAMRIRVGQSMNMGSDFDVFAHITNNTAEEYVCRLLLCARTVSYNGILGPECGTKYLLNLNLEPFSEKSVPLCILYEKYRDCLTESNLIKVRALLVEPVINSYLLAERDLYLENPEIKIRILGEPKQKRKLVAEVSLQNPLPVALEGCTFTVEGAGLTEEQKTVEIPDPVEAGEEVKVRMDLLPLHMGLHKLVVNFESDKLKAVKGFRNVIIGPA
Excerpt: To test the influence of substrate affinity for TG2 on B‐cell uptake, we determined kinetic parameters for gluten peptides harboring the essential TG2 targeted glutamine residue within the DQ2.5‐glia‐α2, DQ2.5‐glia‐ω2, DQ2.5‐glia‐γ1, or DQ2.5‐glia‐γ3 T‐cell epitopes. To directly compare differences in TG2 affinity between the glutamines from the different peptides, we tested 9‐mer peptides harboring only one TG2 targeted glutamine residue.
Recombinant human TG2 with a C‐terminal His‐tag was expressed in Sf+ express insect cells. Briefly, human TGM2 was cloned into the pACAB3 vector, and protein was expressed for 3 days followed by lysis and purification by nickel‐nitrilotriacetic acid affinity chromatography as previously described.
Kinetic parameters for the 9‐mer peptides α2, ω2, γ1, and γ3 were measured using a coupled GDH catalyzed reaction assay performed in microtiter plates as previously described. Here, the following components were used: (1) a 5× stock MOPS buffer consisting of 1 M 3‐(N‐morpholino)propanesulfonic acid pH 7.2, 25 mM CaCl2, 5 mM ETDA, and 50 mM α‐ketoglutarate (Sigma Aldrich) in distilled water; (2) nicotinamide adenine dinucleotide hydrogen (NADH, Sigma–Aldrich); (3) GDH from beef liver (Roche); (4) gluten peptides; (5) recombinant TG2 solved in 1mM EDTA/Tris‐buffered saline. Components 1–4 were mixed in PCR‐strips (Axygen) to give final concentrations of 1x stock buffer, 1 mM NADH, 0.125 U/µL GDH, and various peptide concentrations. The mixture was preincubated in the dark for 15 min, and the reaction was started by the addition of recombinant TG2 (final concentration of 50 µg/mL) followed by transfer to a microtiter plate (Thermo Scientific). Absorbance (340 nm) was measured continuously for 50 min at 37°C using a Victor 3V Multi‐Label Microplate Reader (Perkin Elmer‐Wallac). Initial reaction velocities were calculated from the linear area of the absorbance curves by determining the change in absorbance over time compared to the change from an NADH standard curve. The Michaelis constants (K M) and turnover rates (k cat) were calculated using the k cat equation analysis tool in GraphPad Prism 8.3.0 (GraphPad Software).

[2] = target: T2, Recombinant human transglutaminase 2 (human, UniProt P21980 1-687)
T2 construct: human transglutaminase 2 (TGM2), cloned into the pACAB3 vector; Used enzymatically active with CaCl2; also called TG2; recombinant TG2
T2 sequence (looked up): T1 sequence (P21980 1-687)

[3] = target: T2, Recombinant human transglutaminase 2; assay: flow cytometry on cells; recombinant TG2 (3 µg/mL), 5 µM FITC peptide and 2 mM CaCl2 in RPMI with A20 cells expressing the TG2-specific BCR 679-14-E06, 37°C; stopped with EDTA, cells washed and fixed; cell-bound FITC peptide read as delta MFI against A20 cells with the non-TG2-specific BCR 693-2-F02; details: both partners purified

kcat/Km [1]: 100 min^–1/mM | Km [1]: 240 ± 20 µM | kcat [1]: 24.0±0.7 min^–1 | affinity to TG2 (Km), in words ([1]; native 9-mer peptides, compared with the other 9-mers): twofold lower affinity to TG2
Molecule: Ac‐QQSFP Q QQR [γ1]

kcat/Km [1]: 276 min^–1/mM | Km [1]: 100 ± 20 µM | kcat [1]: 27.6±1.0 min^–1
Molecule: PQP Q QPFPW [ω2]

Km [1]: 130 ± 30 µM | kcat [1]: 23.2±1.0 min^–1
Molecule: Ac‐QP Q QPYPQQ [γ3]

kcat/Km [1]: 197 min^–1/mM | Km [1]: 130 ± 20 µM | kcat [1]: 25.7±0.8 min^–1
Molecule: PQP Q LPYPQ [α2]

Km of TG2 turnover, GDH-coupled ammonia release assay (formation of the thioester intermediate complex), 37°C, pH 7.2 [2]: 0.13 mM
Molecule: Ac-QPQQPYPQQ

binding result [3]: binds
B1: FITC-labeled γ3 9-mer gliadin peptide (native) (peptide)
peptide: {FITC-Ahx}-QPQQPYPQQ
notes: native 9-mer from γ-gliadin; The unlabelled peptide is N-terminally acetylated; also called FITC-γ3; source: synthetic peptide

Km of TG2 turnover, GDH-coupled ammonia release assay (formation of the thioester intermediate complex), 37°C, pH 7.2 [2]: 0.24 mM
Molecule: Ac-QQSFPQQQR

Km of TG2 turnover, GDH-coupled ammonia release assay (formation of the thioester intermediate complex), 37°C, pH 7.2 [2]: 0.1 mM
Molecule: PQPQQPFPW [ω2 9-mer gliadin peptide (native, harbouring the DQ2.5-glia-ω2 epitope)]

binding result [3]: binds
B2: FITC-labeled α2 9-mer gliadin peptide (native) (peptide)
peptide: {FITC-Ahx}-PQPQLPYPQ
notes: also called FITC-α2; source: synthetic peptide

binding result [3]: binds
B3: FITC-labeled γ1 9-mer gliadin peptide (native) (peptide)
peptide: {FITC-Ahx}-QQSFPQQQR
notes: native 9-mer from γ-gliadin; The unlabelled peptide is N-terminally acetylated; also called FITC-γ1; source: synthetic peptide

binding result [3]: binds
B4: FITC-labeled ω2 9-mer gliadin peptide (native) (peptide)
peptide: {FITC-Ahx}-PQPQQPFPW
notes: also called FITC-ω2; source: synthetic peptide

Km of TG2 turnover, GDH-coupled ammonia release assay (formation of the thioester intermediate complex), 37°C, pH 7.2 [2]: 0.13 mM
Molecule: PQPQLPYPQ [α2 9-mer gliadin peptide (native, harbouring the DQ2.5-glia-α2 epitope)]
